From patent publication US20250041429A1, “COMPOUND HAVING BTK PROTEIN DEGRADATION ACTIVITY, AND MEDICAL USES THEREOF” (UBIX THERAPEUTICS, INC., priority 2021, published 2025)

Target: T1, BTK protein (Homo sapiens, UniProt Q06187)
T1 construct: endogenous in cells; host or cells: TMD-8 cells
Assay: Measurement of BTK protein degradation ability in TMD-8 cells (Western blotting)
Type: cell-based
Conditions: harvested after 24 hours; for BTK degradation (%) 1 nM: compound 1 nM; for BTK degradation (%) 10 nM: compound 10 nM; for BTK degradation (%) 100 nM: compound 100 nM
In short: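 BTK levels were measured by immunoblotting of equal-protein RIPA lysates, normalized to GAPDH or β-actin, with chemiluminescent or infrared detection. Lysates came from TMD-8 cells exposed to compound for 24 h at final concentrations of 0.1, 1, 10 μM or 0.0001–0.1 μM, against a DMSO control.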

T1 sequence (Q06187 whole entry): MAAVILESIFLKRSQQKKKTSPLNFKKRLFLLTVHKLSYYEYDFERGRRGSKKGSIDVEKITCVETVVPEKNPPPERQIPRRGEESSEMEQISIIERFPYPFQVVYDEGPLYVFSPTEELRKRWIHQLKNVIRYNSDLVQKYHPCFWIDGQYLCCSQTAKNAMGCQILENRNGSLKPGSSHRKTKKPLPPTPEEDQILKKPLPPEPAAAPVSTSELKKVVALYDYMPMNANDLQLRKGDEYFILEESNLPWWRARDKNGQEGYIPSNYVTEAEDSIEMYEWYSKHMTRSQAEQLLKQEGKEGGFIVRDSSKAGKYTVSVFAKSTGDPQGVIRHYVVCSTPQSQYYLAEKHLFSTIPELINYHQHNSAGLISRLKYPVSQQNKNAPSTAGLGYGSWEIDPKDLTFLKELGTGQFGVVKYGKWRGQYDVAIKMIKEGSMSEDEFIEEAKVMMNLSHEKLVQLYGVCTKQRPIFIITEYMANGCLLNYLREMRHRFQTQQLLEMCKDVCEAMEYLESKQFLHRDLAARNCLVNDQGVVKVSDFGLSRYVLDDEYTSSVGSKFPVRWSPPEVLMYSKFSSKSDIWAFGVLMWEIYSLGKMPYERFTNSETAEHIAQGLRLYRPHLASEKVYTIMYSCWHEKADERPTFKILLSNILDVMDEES

Row | SMILES | BTK degradation (%) 1 nM | BTK degradation (%) 10 nM | BTK degradation (%) 100 nM
1 | Cc1cc(-c2ccnc(Nc3ccc(C4CCN(CC5CCN(c6ccc(OC7CCC(=O)NC7=O)cn6)CC5)CC4)cc3)n2)ccc1CNC(=O)N1CC(OC(C)C)C1 (centres unmarked) [Example 51, N-(4-(2-((4-(1-((1-(5-((2,6-dioxopiperidin-3-yl)oxy)pyridin-2-yl)piperidin-4-yl)methyl)piperidin-4-yl)phenyl)amino)pyrimidin-4-yl)-2-methylbenzyl)-3-isopropoxyazetidine-1-carboxamide] | 24.0% | 86.7% | 99.3%
2 | Cc1cc(-c2ccnc(Nc3ccc(CN4CCN(CC5CCN(c6cccc(N7CCC(=O)NC7=O)c6)CC5)CC4)cc3)n2)ccc1CNC(=O)N1CC(OC(C)C)C1 [Example 67, N-(4-(2-((4-((4-((1-(3-(2,4-dioxotetrahydropyrimidin-1 (2H)-yl)phenyl)piperidin-4-yl)methyl)piperazin-1-yl)methyl)phenyl)amino)pyrimidin-4-yl)-2-methylbenzyl)-3-isopropoxyazetidine-1-carboxamide] | 13.5% | 77.0% | 98.0%
3 | Cc1cc(-c2ccnc(Nc3ccc(N4CCC(CN5CCN(c6ccc7c(c6)C(=O)N(C6CCC(=O)NC6=O)C7=O)CC5)CC4)cc3)n2)ccc1CNC(=O)N1CC(OC(C)C)C1 (centres unmarked) [Example 111, N-(4-(2-((4-(4-((4-(2-(2,6-dioxopiperidin-3-yl)-1,3-dioxoisoindolin-5-yl)piperazin-1-yl)methyl)piperidin-1-yl)phenyl)amino)pyrimidin-4-yl)-2-methylbenzyl)-3-isopropoxyazetidine-1-carboxamide] | 44% | 93.5% | 99.5%
4 | Cc1cc(-c2ccnc(Nc3ccc(C4CCN(CC5CCN(c6ccc(N7CCC(=O)NC7=O)cc6)CC5)CC4)cc3)n2)ccc1CNC(=O)c1cn(C(C)(C)C)nn1 [Example 79, 1-(tert-butyl)-N-(4-(2-((4-(1-((1-(4-(2,4-dioxotetrahydropyrimidin-1 (2H)-yl)phenyl)piperidin-4-yl)methyl)piperidin-4-yl)phenyl)amino)pyrimidin-4-yl)-2-methylbenzyl)-1H-1,2,3-triazole-4-carboxamide] | 26.0% | 92.5% | 98.0%
5 | Cc1cc(-c2ccnc(Nc3ccc(N4CCC(CN5CCN(c6ccc(NC7CCC(=O)NC7=O)cn6)CC5)CC4)cc3)n2)ccc1CNC(=O)c1cnn(C(C)C)c1 (centres unmarked) [Example 129, N-(4-(2-((4-(4-((4-(5-((2,6-dioxopiperidin-3-yl)amino)pyridin-2-yl)piperazin-1-yl)methyl)piperidin-1-yl)phenyl)amino)pyrimidin-4-yl)-2-methylbenzyl)-1-isopropyl-1H-pyrazole-4-carboxamide] | 49.0% | 95.5% | 100.0%
6 | Cc1cc(-c2ccnc(Nc3ccc(N4CCN(CC5CN(C(=O)c6cccc(NC7CCC(=O)NC7=O)c6)C5)CC4)cc3)n2)ccc1CNC(=O)N1CC(OC(C)C)C1 (centres unmarked) [Example 88, N-(4-(2-((4-(4-((1-(3-((2,6-dioxopiperidin-3-yl)amino)benzoyl)azetidin-3-yl)methyl)piperazin-1-yl)phenyl)amino)pyrimidin-4-yl)-2-methylbenzyl)-3-isopropoxyazetidine-1-carboxamide] | 35.5% | 94.5% | 98.5%
7 | Cc1c(NC(=O)c2cn(C(C)(C)C)nn2)cc(F)cc1-c1ccnc(Nc2ccc(N3CCN(CC4CCN(c5ccc6c(c5)C(=O)N(C5CCC(=O)NC5=O)C6=O)CC4)CC3)cc2)n1 (centres unmarked) [Example 25, 1-(tert-butyl)-N-(3-(2-((4-(4-((1-(2-(2,6-dioxopiperidin-3-yl)-1,3-dioxoisoindolin-5-yl)piperidin-4-yl)methyl)piperazin-1-yl)phenyl)amino)pyrimidin-4-yl)-5-fluoro-2-methylphenyl)-1H-1,2,3-triazole-4-carboxamide] | – | 8.5% | 24%
8 | Cc1cc(-c2ccnc(Nc3ccc(N4CCN(CC5CCN(c6ccc(NC7CCC(=O)NC7=O)cn6)CC5)CC4)cc3)n2)ccc1CNC(=O)c1cnn(C(C)C)c1 (centres unmarked) [Example 58, N-(4-(2-((4-(4-((1-(5-((2,6-dioxopiperidin-3-yl)amino)pyridin-2-yl)piperidin-4-yl)methyl)piperazin-1-yl)phenyl)amino)pyrimidin-4-yl)-2-methylbenzyl)-1-isopropyl-1H-pyrazole-4-carboxamide] | 62.0% | 97.5% | 99.0%
9 | Cc1cc(-c2ccnc(Nc3ccc(N4CCN(CC5CN(c6ccc7c(c6)C(=O)N(C6CCC(=O)NC6=O)C7=O)C5)CC4)cc3)n2)ccc1CNC(=O)c1cnn(C(C)C)c1 (centres unmarked) [Example 34, N-(4-(2-((4-(4-((1-(2-(2,6-dioxopiperidin-3-yl)-1,3-dioxoisoindolin-5-yl)azetidin-3-yl)methyl)piperazin-1-yl)phenyl)amino)pyrimidin-4-yl)-2-methylbenzyl)-1-isopropyl-1H-pyrazole-4-carboxamide] | 41% | 90% | 99.5%

Next, values leading:

Row | BTK degradation (%) 1 nM | BTK degradation (%) 10 nM | BTK degradation (%) 100 nM | SMILES
10 | 46% | 92% | 98.5% | Cc1cc(-c2ccnc(Nc3ccc(N4CCN(CC5CN(c6ccc7c(c6)C(=O)N(C6CCC(=O)NC6=O)C7=O)C5)CC4)nc3)n2)ccc1CNC(=O)N1CC(OC(C)C)C1 (centres unmarked) [Example 18, N-(4-(2-((6-(4-((1-(2-(2,6-dioxopiperidin-3-yl)-1,3-dioxoisoindolin-5-yl)azetidin-3-yl)methyl)piperazin-1-yl)pyridin-3-yl)amino)pyrimidin-4-yl)-2-methylbenzyl)-3-isopropoxyazetidine-1-carboxamide]
11 | 81.5% | 100.0% | 100.0% | Cc1cc(-c2ccnc(Nc3ccc(C4CN(CC5CCN(c6ccc7c(c6)C(=O)N(C6CCC(=O)NC6=O)C7=O)CC5)C4)cc3)n2)ccc1CNC(=O)N1CC(OC(C)C)C1 (centres unmarked) [Example 41, N-(4-(2-((4-(1-((1-(2-(2,6-dioxopiperidin-3-yl)-1,3-dioxoisoindolin-5-yl)piperidin-4-yl)methyl)azetidin-3-yl)phenyl)amino)pyrimidin-4-yl)-2-methylbenzyl)-3-isopropoxyazetidine-1-carboxamide]
12 | 25.0% | 81.5% | 97.0% | Cc1cc(-c2ccnc(Nc3ccc(N4CCC(CN5CCC(c6ccc(NC7CCC(=O)NC7=O)cc6)CC5)CC4)cc3)n2)cnc1CNC(=O)c1cn(C(C)(C)C)nn1 (centres unmarked) [Example 137, 1-(tert-butyl)-N-((5-(2-((4-(4-((4-(4-((2,6-dioxopiperidin-3-yl)amino)phenyl)piperidin-1-yl)methyl)piperidin-1-yl)phenyl)amino)pyrimidin-4-yl)-3-methylpyridin-2-yl)methyl)-1H-1,2,3-triazole-4-carboxamide]
13 | 18% | 12% | 4.5% | Cc1cc(CNC(=O)N2CC(OC(C)C)C2)cc(-c2ccnc(Nc3ccc(N4CCN(CC5CCN(c6ccc7c(c6)C(=O)N(C6CCC(=O)NC6=O)C7=O)CC5)CC4)cc3)n2)c1 (centres unmarked) [Example 28, N-(3-(2-((4-(4-((1-(2-(2,6-dioxopiperidin-3-yl)-1,3-dioxoisoindolin-5-yl)piperidin-4-yl)methyl)piperazin-1-yl)phenyl)amino)pyrimidin-4-yl)-5-methylbenzyl)-3-isopropoxyazetidine-1-carboxamide]
14 | 7.0% | 33.5% | 89.0% | Cc1cc(-c2ccnc(Nc3cnn(C4CCN(CC5CN(C(=O)c6cccc(NC7CCC(=O)NC7=O)c6)C5)CC4)c3)n2)ccc1CNC(=O)N1CC(OC(C)C)C1 (centres unmarked) [Example 92, N-(4-(2-((1-(1-((1-(3-((2,6-dioxopiperidin-3-yl)amino)benzoyl)azetidin-3-yl)methyl)piperidin-4-yl)-1H-pyrazol-4-yl)amino)pyrimidin-4-yl)-2-methylbenzyl)-3-isopropoxyazetidine-1-carboxamide]
15 | 13.7% | 91.3% | 99.7% | Cc1cc(-c2ccnc(Nc3ccc(C4CCN(CC5CCN(c6ccc(NC7CCC(=O)NC7=O)cc6)CC5)CC4)cc3)n2)ccc1CNC(=O)N1CC(OC(C)C)C1 (centres unmarked) [Example 56, N-(4-(2-((4-(1-((1-(4-((2,6-dioxopiperidin-3-yl)amino)phenyl)piperidin-4-yl)methyl)piperidin-4-yl)phenyl)amino)pyrimidin-4-yl)-2-methylbenzyl)-3-isopropoxyazetidine-1-carboxamide]
16 | 15.5% | 68.0% | 95.0% | Cc1cc(-c2ccnc(Nc3ccc(N4CCC(CN5CCC(c6ccc(N7CCC(=O)NC7=O)cc6)CC5)CC4)cc3)n2)ccc1CNC(=O)c1cn(C(C)(C)C)nn1 [Example 139, 1-(tert-butyl)-N-(4-(2-((4-(4-((4-(4-(2,4-dioxotetrahydropyrimidin-1 (2H)-yl)phenyl)piperidin-1-yl)methyl)piperidin-1-yl)phenyl)amino)pyrimidin-4-yl)-2-methylbenzyl)-1H-1,2,3-triazole-4-carboxamide]
17 | 54.0% | 95.0% | 99.5% | Cc1cc(-c2ccnc(Nc3ccc(N4CCN(CC5CCN(c6cccc(NC7CCC(=O)NC7=O)c6)CC5)CC4)cc3)n2)ccc1CNC(=O)c1cnn(C(C)C)c1 (centres unmarked) [Example 57, N-(4-(2-((4-(4-((1-(3-((2,6-dioxopiperidin-3-yl)amino)phenyl)piperidin-4-yl)methyl)piperazin-1-yl)phenyl)amino)pyrimidin-4-yl)-2-methylbenzyl)-1-isopropyl-1H-pyrazole-4-carboxamide]
